# According to patent US20160074643A1, “SKIN CARE PRODUCTS” (The Procter & Gamble Company, priority 2014, published 2016):
# Where “and” joins values, the source holds several entries; their conditions need not be identical. Equal entries are not always repeated.
# Experiment: Vitamin B3 in vivo skin penetration study #2: Tape Stripping Method, magnetic vs non-magnetic applicator
# Set-up: species or system human; amount of niacinamide recovered from tape strip / amount of niacinamide recovered from tape strip, Avg / amount of niacinamide recovered, Sum 2-10 / amount of niacinamide recovered, Sum 2-10, Avg / amount of niacinamide recovered, Sum 6-10 / amount of niacinamide recovered, Sum 6-10, Avg: unit not given here
# Settings: for amount of niacinamide recovered from tape strip, Avg / amount of niacinamide recovered, Sum 2-10, Avg / amount of niacinamide recovered, Sum 6-10, Avg: average across all 10 test sites; for amount of niacinamide recovered, Sum 2-10, Avg / amount of niacinamide recovered, Sum 2-10: sum of strips 2-10; for amount of niacinamide recovered, Sum 6-10, Avg / amount of niacinamide recovered, Sum 6-10: sum of strips 6-10
# Procedure: This method provides a suitable means of measuring the amount of skin care active present in skin, and comparing active versus passive application of the skin care active. Two identical circular areas of 7.9 cm^2 were marked on the volar forearms of volunteers. A measured dose (approximately 9 mg) of the skin care formulation (ingredients shown in Table 1) was applied to the delineated areas using a screw actuated syringe. Active application was carried out using purpose made applicators having a metallic aluminium skin contact surface behind which was the magnetic array. The cream was spread evenly across the entire delineated region using the applicator in a sweeping motion with a fixed speed of approximately 3.5 cm/s to mimic normal finger application. Passive application was performed using the tip of a finger in a sweeping motion identical to that of application using the applicator. The application period was 30 seconds during which time visual inspection was used to ensure even distribution and absorption of the formulation by skin. The application area was then left uncovered for a further 30 minutes to ensure complete absorption. The application area was then wiped thoroughly to remove any surface material, followed by carrying out tape stripping.
# The Tape Stripping Method can be carried out using commercial pre-cut 22.1 mm tape stripping adhesive discs (D-SQUAME brand tape strips from Cuderm Corporation or equivalent) with an adhesive area of 3.8 cm^2. A 22.1 mm diameter circular region was marked at the center of the application area. A tape stripping adhesive disc was placed over the marked area and even pressure applied using a neoprene roller, rolled ten times over the surface. The adhesive disc was removed from the skin surface in a single pulling motion using manual tweezers. To ensure even removal of the stratum corneum, subsequent discs were removed in a north, south, east and west orientation. Each adhesive disc was non-destructively analyzed for relative protein content using the SquameScan™ 850 instrument (Heiland Electronics Wetzlar Germany). The adhesive disc was then immediately placed into a glass vial containing extraction solvent in preparation for subsequent analysis. Solvent extractions are conducted on each tape strip using conventional extraction methods, which are well known to those of ordinary skill in the art, and measuring the amount of niacinamide present in the extract, for example, by high performance liquid chromatography (“HPLC”) and/or mass spectrometry.
# In this example, 5 test subjects (A to E in Tables 13 and 14) were selected. […] The applicator used for active application included Array #8 from Table 2. The applicator used for passive application was the same as the one used for active application except without the magnetic array. Each forearm included an active application test site and a passive application site for a total of 10 active test sites and 10 passive sites. The application time was 30 seconds with a speed of motion of approximately 3 cm per second, equating to a gentle rubbing action. Application of the composition was followed by a 30 minute absorption period. […] The level of niacinamide recovered from each tape strip was measured using HPLC.
# The average value across all test sites is shown in the second to last cell of the row. The standard error of the mean (SEM) is shown in the last column of Tables 13 and 14. The SEM is calculated by dividing the standard deviation by the square root of the number of test sites. The active versus passive application results from Tables 13 and 14 are graphically illustrated in FIG. 7.
# The enhancement values shown in Table 15 are calculated by dividing the active value from Table 14 by the passive value from Table 13. The average shown in the last column of Table 15 is calculated by averaging the enhancement values of all the test sites. […]
# [1] = active value divided by passive value, average of all test sites
# [2] = active value divided by passive value, individual test sites, Subjects A-E, Site 1/2
# [3] = Active Application (magnetic applicator, Array #8)
# [4] = Active Application (magnetic applicator, Array #8), individual test sites, Subjects A-E, Site 1/2
# [5] = Passive Application (non-magnetic applicator)
# [6] = Passive Application (non-magnetic applicator), individual test sites, Subjects A-E, Site 1/2
structure (smiles),measurement,setting,value
NC(=O)c1cccnc1 [niacinamide],"Enhancement value Strips 2-10, Avg",[1],1.47
same,"Enhancement value Strips 6-10, Avg",[1],1.46
same,Enhancement value Strips 2-10,[2],1.63 and 1.35 and 1.77 and 1.47 and 1.51 and 1.26 and 1.19 and 1.39 and 1.59 and 1.54
same,Enhancement value Strips 6-10,[2],1.53 (2×) and 1.34 and 1.71 and 1.41 and 1.83 and 1.19 and 1.21 and 1.39 and 1.43
same,"niacinamide delivered into the skin, active compared to passive application",magnetic applicator vs non-magnetic applicator,about 1.5 ×
same,"amount of niacinamide recovered from tape strip, Avg","strip 1, Active Application (magnetic applicator, Array #8)",4.43
same,"amount of niacinamide recovered from tape strip, Avg","strip 1, Passive Application (non-magnetic applicator)",3.87
same,amount of niacinamide recovered from tape strip,"strip 1, Passive Application (non-magnetic applicator), individual test sites, Subjects A-E, Site 1/2",2.62 and 3.31 and 3.07 and 2.86 and 3.16 and 5.69 and 4.14 and 6.28 and 0.54 and 7.00
same,"amount of niacinamide recovered from tape strip, Avg","strip 2, Active Application (magnetic applicator, Array #8)",6.10
same,"amount of niacinamide recovered from tape strip, Avg","strip 2, Passive Application (non-magnetic applicator)",4.12
same,amount of niacinamide recovered from tape strip,"strip 2, Passive Application (non-magnetic applicator), individual test sites, Subjects A-E, Site 1/2",2.66 and 3.81 and 2.71 and 2.52 and 4.24 and 7.80 and 5.47 and 7.28 and 1.84 and 2.88
same,"amount of niacinamide recovered from tape strip, Avg","strip 3, Active Application (magnetic applicator, Array #8)",8.37
same,"amount of niacinamide recovered from tape strip, Avg","strip 3, Passive Application (non-magnetic applicator)",5.69
same,amount of niacinamide recovered from tape strip,"strip 3, Passive Application (non-magnetic applicator), individual test sites, Subjects A-E, Site 1/2",3.51 and 5.43 and 6.33 and 3.77 and 6.64 and 7.64 and 6.14 and 9.62 and 2.43 and 5.36
same,"amount of niacinamide recovered from tape strip, Avg","strip 4, Active Application (magnetic applicator, Array #8)",8.25
same,"amount of niacinamide recovered from tape strip, Avg","strip 4, Passive Application (non-magnetic applicator)",6.18
same,amount of niacinamide recovered from tape strip,"strip 4, Passive Application (non-magnetic applicator), individual test sites, Subjects A-E, Site 1/2",4.22 and 2.79 and 8.53 and 4.24 and 7.48 and 7.15 and 5.87 and 11.29 and 1.29 and 8.91
same,"amount of niacinamide recovered from tape strip, Avg","strip 5, Active Application (magnetic applicator, Array #8)",7.68
same,"amount of niacinamide recovered from tape strip, Avg","strip 5, Passive Application (non-magnetic applicator)",4.91
same,amount of niacinamide recovered from tape strip,"strip 5, Passive Application (non-magnetic applicator), individual test sites, Subjects A-E, Site 1/2",4.57 and 3.79 and 6.08 and 2.74 and 6.35 and 6.21 and 5.61 and 7.10 and 2.27 and 4.36
same,"amount of niacinamide recovered from tape strip, Avg","strip 6, Active Application (magnetic applicator, Array #8)",7.02
same,"amount of niacinamide recovered from tape strip, Avg","strip 6, Passive Application (non-magnetic applicator)",4.72
same,amount of niacinamide recovered from tape strip,"strip 6, Passive Application (non-magnetic applicator), individual test sites, Subjects A-E, Site 1/2",4.37 and 3.42 and 6.69 and 1.97 and 5.29 and 7.95 and 4.56 and 6.46 and 2.62 and 3.85
same,"amount of niacinamide recovered from tape strip, Avg","strip 7, Active Application (magnetic applicator, Array #8)",5.52
same,"amount of niacinamide recovered from tape strip, Avg","strip 7, Passive Application (non-magnetic applicator)",3.66
same,amount of niacinamide recovered from tape strip,"strip 7, Passive Application (non-magnetic applicator), individual test sites, Subjects A-E, Site 1/2",3.57 and 3.37 and 4.35 and 1.87 and 3.82 and 6.89 and 5.41 and 0.19 and 2.67 and 4.47
same,"amount of niacinamide recovered from tape strip, Avg","strip 8, Active Application (magnetic applicator, Array #8)",4.63
same,"amount of niacinamide recovered from tape strip, Avg","strip 8, Passive Application (non-magnetic applicator)",3.43
same,amount of niacinamide recovered from tape strip,"strip 8, Passive Application (non-magnetic applicator), individual test sites, Subjects A-E, Site 1/2",2.65 and 2.92 and 2.85 and 1.56 and 4.65 and 5.34 and 2.94 and 5.75 and 1.88 and 3.71
same,"amount of niacinamide recovered from tape strip, Avg","strip 9, Active Application (magnetic applicator, Array #8)",5.11
same,"amount of niacinamide recovered from tape strip, Avg","strip 9, Passive Application (non-magnetic applicator)",3.59
same,amount of niacinamide recovered from tape strip,"strip 9, Passive Application (non-magnetic applicator), individual test sites, Subjects A-E, Site 1/2",2.95 and 2.37 and 2.24 and 2.00 and 3.78 and 6.70 and 2.79 and 7.20 and 2.15 and 3.70
same,"amount of niacinamide recovered from tape strip, Avg","strip 10, Active Application (magnetic applicator, Array #8)",4.48
same,"amount of niacinamide recovered from tape strip, Avg","strip 10, Passive Application (non-magnetic applicator)",3.20
same,amount of niacinamide recovered from tape strip,"strip 10, Passive Application (non-magnetic applicator), individual test sites, Subjects A-E, Site 1/2",1.58 and 2.24 and 1.54 and 1.31 and 4.53 and 5.34 and 2.42 and 6.19 and 0.71 and 6.10
same,"amount of niacinamide recovered, Sum 2-10, Avg",[3],57.16
same,"amount of niacinamide recovered, Sum 2-10",[4],49.17 and 40.65 and 72.98 and 32.23 and 70.46 and 76.77 and 48.95 and 85.20 and 28.48 and 66.67
same,"amount of niacinamide recovered, Sum 2-10, Avg",[5],39.48
same,"amount of niacinamide recovered, Sum 2-10",[6],30.09 and 30.15 and 41.32 and 21.97 and 46.79 and 61.02 and 41.20 and 61.08 and 17.87 and 43.34
same,"amount of niacinamide recovered, Sum 6-10, Avg",[3],26.76
same,"amount of niacinamide recovered, Sum 6-10",[4],23.12 and 19.16 and 30.14 and 12.25 and 40.38 and 38.27 and 21.85 and 35.82 and 15.32 and 31.26
same,"amount of niacinamide recovered, Sum 6-10, Avg",[5],18.59
same,"amount of niacinamide recovered, Sum 6-10",[6],15.13 and 14.32 and 17.67 and 8.70 and 22.07 and 32.21 and 18.11 and 25.79 and 10.04 and 21.84
